Results taken from patent US20030215462A1, “Use of UGT inhibitors to increase bioavailability” (priority 2001, published 2003).
Where “and” joins values, the source holds several entries; their conditions need not be identical. Identical values can stand only once.

Legend:
[1] = target: T1, UGT enzymes of human liver microsomes (Homo sapiens, UniProt P16662); assay: Inhibition of zidovudine glucuronidation in human liver microsomes; format: biochemical; settings: liver lot 062101
T1 construct: residual metabolism (percentage of control), zidovudine glucuronidation; other: liver lot 062101; residual metabolism (percentage of control), zidovudine glucuronidation; residual metabolism (percentage of control)
T1 sequence (P16662 1-529): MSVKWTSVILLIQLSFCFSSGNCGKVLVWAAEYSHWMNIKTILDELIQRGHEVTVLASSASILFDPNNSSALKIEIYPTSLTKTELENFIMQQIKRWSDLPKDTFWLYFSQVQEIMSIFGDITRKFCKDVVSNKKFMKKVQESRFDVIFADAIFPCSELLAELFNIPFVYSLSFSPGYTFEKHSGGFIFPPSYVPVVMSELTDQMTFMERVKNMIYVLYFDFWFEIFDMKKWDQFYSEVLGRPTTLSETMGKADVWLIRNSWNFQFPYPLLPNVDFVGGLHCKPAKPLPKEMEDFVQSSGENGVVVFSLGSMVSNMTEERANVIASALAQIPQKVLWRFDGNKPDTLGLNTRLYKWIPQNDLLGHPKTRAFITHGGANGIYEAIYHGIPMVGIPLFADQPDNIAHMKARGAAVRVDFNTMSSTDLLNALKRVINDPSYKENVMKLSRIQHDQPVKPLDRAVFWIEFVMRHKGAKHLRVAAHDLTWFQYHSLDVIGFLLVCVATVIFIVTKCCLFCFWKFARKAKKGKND
Procedure: Compounds were eluted using a binary solvent gradient system where solvent A was dilute phosphoric acid (pH 3) and solvent B was acetonitrile.
Standardized incubations utilized 500 μM zidovudine substrate, 1 mg/ml microsomal protein, 5 mM UDPGA and a 30 min incubation time. […] Int.

[2] = system: UGT enzymes of pooled human jejunum microsomes; assay: Inhibition of 2ME2 glucuronidation (MG1) in pooled human jejunum microsomes; format: biochemical; settings: jejunum HJ61, 2ME2 50 μM
Text: Compounds were eluted using a binary solvent gradient system where solvent A was dilute phosphoric acid (pH 3) and solvent B was 80:20 acetonitrile-methanol. […] Detection was at 280 nm.

[3] = target: T2, UGT1A1 (Homo sapiens, UniProt P22309); assay: Inhibition of raloxifene glucuronidation by recombinant UGT1A1 Supersomes; settings: for activity at 15 min / activity at 15 min, 10 µM / activity at 15 min, 25 µM / activity at 15 min, 50 µM: human; for activity at 15 min, 10 µM: inhibitor 10 μM; for % of control metabolism, raloxifene G1 / % of control metabolism, raloxifene G2 / inhibition of raloxifene glucuronidation, in words: UGT1A1
T2 sequence (P22309 26-533): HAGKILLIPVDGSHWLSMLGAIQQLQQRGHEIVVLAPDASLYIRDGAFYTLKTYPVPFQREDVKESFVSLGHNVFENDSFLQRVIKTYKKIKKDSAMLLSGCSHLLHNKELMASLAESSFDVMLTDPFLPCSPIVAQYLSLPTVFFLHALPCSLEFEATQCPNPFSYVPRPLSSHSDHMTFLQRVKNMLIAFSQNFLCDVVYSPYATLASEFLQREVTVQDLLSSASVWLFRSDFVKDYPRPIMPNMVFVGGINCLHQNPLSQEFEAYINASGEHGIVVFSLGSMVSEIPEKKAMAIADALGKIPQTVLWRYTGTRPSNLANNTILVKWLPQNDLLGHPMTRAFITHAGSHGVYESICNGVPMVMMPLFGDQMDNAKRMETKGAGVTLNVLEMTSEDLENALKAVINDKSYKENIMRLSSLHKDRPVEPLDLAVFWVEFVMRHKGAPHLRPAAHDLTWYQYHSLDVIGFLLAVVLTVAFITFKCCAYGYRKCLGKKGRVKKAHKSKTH
Procedure: (§1) Compounds were eluted using a binary solvent gradient system. Solvent A was water brought to pH 8 with NH4OH. Solvent B was methanol. Solvent flow rate was 1 ml/min and the column temperature was maintained at 50° C. Detection was at 280 nm. […] The system was then returned to the initial conditions and equilibrated for 3 min.

[4] = target: T3, UGT1A8 (Homo sapiens, UniProt Q9HAW9); assay: Inhibition of raloxifene glucuronidation by recombinant UGT1A8 Supersomes; settings: for activity at 15 min, 10 µM: human, Supersomes with recombinant human UGT1A8, pH 7.5, probe raloxifene 50 μM, inhibitor 10 μM
T3 sequence (Q9HAW9 26-530): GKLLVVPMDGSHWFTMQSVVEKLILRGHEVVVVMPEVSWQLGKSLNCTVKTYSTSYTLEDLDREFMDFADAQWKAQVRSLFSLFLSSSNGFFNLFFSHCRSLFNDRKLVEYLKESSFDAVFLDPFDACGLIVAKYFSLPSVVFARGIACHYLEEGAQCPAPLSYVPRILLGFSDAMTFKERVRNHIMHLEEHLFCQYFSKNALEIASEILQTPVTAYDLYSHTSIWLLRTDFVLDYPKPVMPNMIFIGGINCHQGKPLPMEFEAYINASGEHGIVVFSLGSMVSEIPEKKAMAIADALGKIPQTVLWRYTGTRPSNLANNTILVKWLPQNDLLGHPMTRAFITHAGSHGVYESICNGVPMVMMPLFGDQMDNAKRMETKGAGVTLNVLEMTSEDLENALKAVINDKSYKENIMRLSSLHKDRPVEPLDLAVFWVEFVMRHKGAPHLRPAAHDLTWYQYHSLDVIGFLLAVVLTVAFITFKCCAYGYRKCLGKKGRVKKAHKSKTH
Procedure: as §1

[5] = system: T4, UGT enzymes of human liver microsomes; assay: Kinetic and Ki studies of inhibitors of 7-HFC glucuronidation in human liver microsomes; format: biochemical; settings: 7-HFC 20-500 μM; for Km: read-out: Km of 7-HFC glucuronidation (fit of the experiment with this inhibitor)
T4 construct: percentage of control metabolism, 7-HFC glucuronidation; percentage of control metabolism, 7-HFC glucuronidation

[6] = inhibitor 25 μM, raloxifene 50 μM, 250 μg/ml Supersomes, 1 mM UDPGA, 15 min
[7] = inhibitor 50 μM, raloxifene 50 μM, 250 μg/ml Supersomes, 1 mM UDPGA, 15 min
[8] = inhibitor column headed only "μM" (between 25 μM and 5 μM), raloxifene 50 μM, 250 μg/ml Supersomes, 1 mM UDPGA, 15 min

| Structure (SMILES) | residual metabolism (percentage of control), zidovudine glucuronidation ([1]; inhibitor 50 μM) | residual metabolism (percentage of control), zidovudine glucuronidation ([1]; inhibitor 100 μM) | residual metabolism (percentage of control), zidovudine glucuronidation ([1]; inhibitor 200 μM) | residual metabolism (percentage of control), zidovudine glucuronidation ([1]; inhibitor 500 μM) | Vmax of 7-HFC glucuronidation (fit of the experiment with this inhibitor) [5] [nmol/min/mg] | Km [5] [µM] | residual metabolism (% of control), 2ME2 MG1 ([2]; inhibitor 50 μM) | residual metabolism (% of control), 2ME2 MG1 ([2]; inhibitor 100 μM) | residual metabolism (% of control), 2ME2 MG1 ([2]; inhibitor 25 μM) | other results |
| --- | --- | --- | --- | --- | --- | --- | --- | --- | --- | --- |
| CC/C(=C(/CC)c1ccc(O)cc1)c1ccc(O)cc1 [Diethylstilbestrol, reference compound] | 50 (4) % and 44 (2) % | 34 (4) % | 15 (1) % | 0 (0) % | 64 ± 4 | 87 ± 7 | – | – | – | residual metabolism (% of control), 2ME2 MG1 ([2]; inhibitor 1 μM): 93 (4) %; residual metabolism (% of control), 2ME2 MG1 ([2]; inhibitor 10 μM): 75 (1) %; activity at 15 min ([3]; Supersomes with recombinant human UGT1A1, pH 7.5, probe raloxifene 50 μM, formation of glucuronide G1): 59%; activity at 15 min, 10 µM ([3]; Supersomes with recombinant human UGT1A1, pH 7.5, probe raloxifene 50 μM, formation of glucuronide G1, % of control metabolism, raloxifene G1, UGT1A1): 59%; activity at 15 min, 25 µM ([3]; Supersomes with recombinant human UGT1A1, pH 7.5, probe raloxifene 50 μM, formation of glucuronide G1, % of control metabolism, raloxifene G1, UGT1A1, inhibitor 25 μM): 26%; activity at 15 min, 50 µM ([3]; Supersomes with recombinant human UGT1A1, pH 7.5, probe raloxifene 50 μM, formation of glucuronide G1, % of control metabolism, raloxifene G1, UGT1A1, inhibitor 50 μM): 12%; activity at 15 min, 25 µM ([3]; Supersomes with recombinant human UGT1A1, pH 7.5, probe raloxifene 50 μM, formation of glucuronide G1, Inhibition of raloxifene glucuronidation, G1, UGT1A1, G1, inhibitor 25 μM, raloxifene 50 μM, 250 μg/ml Supersomes, 1 mM UDPGA, 15 min): 26%; activity at 15 min, 50 µM ([3]; Supersomes with recombinant human UGT1A1, pH 7.5, probe raloxifene 50 μM, formation of glucuronide G1, Inhibition of raloxifene glucuronidation, G1, UGT1A1, G1, inhibitor 50 μM, raloxifene 50 μM, 250 μg/ml Supersomes, 1 mM UDPGA, 15 min): 12%; activity at 15 min, 10 µM ([3]; Supersomes with recombinant human UGT1A1, pH 7.5, probe raloxifene 50 μM, formation of glucuronide G2, % of control metabolism, raloxifene G2, UGT1A1): 72%; activity at 15 min, 25 µM ([3]; Supersomes with recombinant human UGT1A1, pH 7.5, probe raloxifene 50 μM, formation of glucuronide G2, % of control metabolism, raloxifene G2, UGT1A1, inhibitor 25 μM): 41%; activity at 15 min, 50 µM ([3]; Supersomes with recombinant human UGT1A1, pH 7.5, probe raloxifene 50 μM, formation of glucuronide G2, % of control metabolism, raloxifene G2, UGT1A1, inhibitor 50 μM): 27%; activity at 15 min ([3]; recombinant UGT1A1 Supersomes, pH 7.5, probe raloxifene 50 μM (formation of glucuronide G2)): 72%; activity at 15 min, 25 µM ([3]; recombinant UGT1A1 Supersomes, pH 7.5, probe raloxifene 50 μM (formation of glucuronide G2), Inhibition of raloxifene glucuronidation, G2, UGT1A1, G2, inhibitor 25 μM, raloxifene 50 μM, 250 μg/ml Supersomes, 1 mM UDPGA, 15 min): 41%; activity at 15 min, 50 µM ([3]; recombinant UGT1A1 Supersomes, pH 7.5, probe raloxifene 50 μM (formation of glucuronide G2), Inhibition of raloxifene glucuronidation, G2, UGT1A1, G2, inhibitor 50 μM, raloxifene 50 μM, 250 μg/ml Supersomes, 1 mM UDPGA, 15 min): 27%; activity at 15 min, 10 µM ([4]; formation of glucuronide G1, % of control metabolism, raloxifene G1, UGT1A8): 156%; activity at 15 min, 10 µM ([4]; formation of glucuronide G2, % of control metabolism, raloxifene G2, UGT1A8): 73% |
| O=C(O)c1cc(-c2ccc(F)cc2F)ccc1O [Diflunisal, reference compound] | – | – | – | 74 (2) % | 62 ± 4 | 92 ± 9 | 91 (1) % | 82 (2) % | – | residual metabolism (percentage of control), zidovudine glucuronidation ([1]; inhibitor 1000 μM): 43 (2) % |
| O=C(O[C@@H]1Cc2c(O)cc(O)cc2O[C@@H]1c1ccc(O)c(O)c1)c1cc(O)c(O)c(O)c1 [Epicatechin gallate] | 80 (1) % | 67 (1) % | 60 (2) % | 28 (1) % | – | – | 63 (1) % | 47 (2) % | 76 (4) % | – |
| O=C(O[C@@H]1Cc2c(O)cc(O)cc2O[C@@H]1c1cc(O)c(O)c(O)c1)c1cc(O)c(O)c(O)c1 [Epigallocatechin gallate] | 70 (1) % | 60 (2) % | 39 (2) % | 18 (1) % | 54 ± 3 | 75 ± 7 | 50 (3) % | 35 (2) % | 66 (2) % | Inhibition of raloxifene glucuronidation, G1, UGT1A1 [3, 6]: 44 (1); Inhibition of raloxifene glucuronidation, G1, UGT1A1 [3, 7]: 21 (0); Inhibition of raloxifene glucuronidation, G1, UGT1A1 [3, 8]: 70 (1); Inhibition of raloxifene glucuronidation, G2, UGT1A1 [3, 6]: 45 (1); Inhibition of raloxifene glucuronidation, G2, UGT1A1 [3, 7]: 25 (1); Inhibition of raloxifene glucuronidation, G2, UGT1A1 [3, 8]: 74 (2); % of control metabolism, raloxifene G1 ([3]; inhibitor 25 μM): 44 (1) %; % of control metabolism, raloxifene G2 ([3]; inhibitor 25 μM): 45 (1) %; % of control metabolism, raloxifene G1 ([3]; inhibitor 50 μM): 21 (0) %; % of control metabolism, raloxifene G2 ([3]; inhibitor 50 μM): 25 (1) %; % of control metabolism, raloxifene G1 ([4]; UGT1A8, inhibitor 50 μM): 69 (3) %; % of control metabolism, raloxifene G2 ([4]; UGT1A8, inhibitor 50 μM): 54 (2) % |
| C=CCc1ccc(O)c(OC)c1 [Eugenol] | – | – | – | 84 (2) % | – | – | – | 104 (4) % | – | residual metabolism (percentage of control), zidovudine glucuronidation ([1]; inhibitor 1000 μM): 48 (4) %; inhibition of raloxifene glucuronidation, in words [3]: ineffective; inhibition of raloxifene glucuronidation, in words ([4]; UGT1A8): ineffective |
| CCCOC(=O)c1cc(O)c(O)c(O)c1 [Propyl gallate] | – | – | – | 77 (2) % | – | – | – | – | – | – |
| O=c1c(O)c(-c2ccc(O)c(O)c2)oc2cc(O)cc(O)c12 [Quercetin] | – | 94 (8) % | 64 (4) % | – | – | – | 44 (2) % | 19 (1) % | 56 (2) % | inhibition of raloxifene glucuronidation, in words [3]: good inhibitor; inhibition of raloxifene glucuronidation, in words ([4]; UGT1A8): ineffective |
